Reference: paper PMC9552003, “Chemosensory protein 4 is required for Bradysia odoriphaga to be olfactory attracted to sulfur compounds released from Chinese chives” (Frontiers in Physiology, 2022)
pIC50, pKd, pKi: −log10 of the molar value. Where “and” joins values, the source holds several entries; their conditions need not be identical. Equal values may be shown once. Read-outs that look alike come from different tables or passages of the source.

Columns and labels:
recombinant BodoCSP4 = recombinant BodoCSP4 (Bradysia odoriphaga, UniProt A0A2S0X9L0); test: biochemical; assay type: binding
Sequence of recombinant BodoCSP4 (A0A2S0X9L0 entry or part of it): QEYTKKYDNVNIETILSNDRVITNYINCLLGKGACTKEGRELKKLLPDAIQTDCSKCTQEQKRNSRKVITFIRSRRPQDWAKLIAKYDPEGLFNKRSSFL
Experimental: An F-380 fluorescence spectrophotometer (Tianjin, China) was used to measure the binding affinity of BodoCSP4 to the selected volatiles, using 1-N-phenyl-naphthylamine (1-NPN) as the fluorescent probe. […] Both 1-NPN and the volatile compounds were diluted in chromatographic-grade methanol to make 1 mM stock solutions. Recombinant BodoCSP4 was dissolved in 20 mM Tris-HCl (pH 7.4) and diluted to a 2 µM stock solution.

[1] = tested on: B. odoriphaga male adults; test: Y-tube olfactometer assay after dsRNA injection; assay type: in vivo, Bradysia odoriphaga; conditions: for effect of silencing of BodoCSP4 on behavioral response of male adults to the ligand: RNAi, Y-tube olfaction assays; for behavioral response (attraction to ligand vs hexane control): n = 60, chi-square test
Description: The primer pairs dsCSP4 and dsGFP, containing the T7 promoter sequence, are listed in Table 1, and the T7 RiboMAX ™ Express RNAi System was used to synthesize double stranded RNAs (dsRNAs). The dsRNAs were microinjected into 3-day-old pupae of B. odoriphaga, and newly eclosed male adults were selected for dsRNA extraction and behavioral assays as previously described ([Yang et al., 2021b]; [Zhang et al., 2021]). According to the fluorescence binding results, after BodoCSP4 was silenced, a Y-tube olfactometer was used to assess the behavioral responses of B. odoriphaga male adults to the ligands diallyl disulfide, methyl allyl disulfide, and n-heptadecane as described in our previous report ([Yang et al., 2019]). In brief, a 10-μL solution of diallyl disulfide, methyl allyl disulfide, or n-heptadecane in hexane was placed on a strip (4 × 40 mm) of filter paper; after 10 s, the strip was placed at the end of one of the two Y-tube arms. As a control, a hexane-treated filter paper strip was placed at the end of the other arm. Two streams of clean air were passed through the Y-tube arms to the base, and one adult male that had been previously injected (at the pupal stage, 12 h before emergence) with dsBodoCSP4 or dsGFP was placed in the base of the Y-tube. If the male adult moved at least half way up one of the Y-tube arms, the result was recorded and considered an indication of attraction or repulsion depending on which arm was selected. Each of six treatment combinations (3 host plant volatiles with controls and dsBodoCSP4 or dsGFP microinjected adults) are represented by 60 replicate assays.
All RT-qPCR experiments were analyzed using one-way ANOVA followed by Tukey-HSD tests with SPSS 20.0 software. All RT-qPCR experiments were conducted using three independent biological replicates. In each of the six Y-tube olfactometer assays (3 ligands and controls without ligand × two types of microinjected B. odoriphaga adult males), behavioral responses to filter paper with or without ligand were analyzed by a chi-square test (χ 2).

[2] = tested on: B. odoriphaga male adults; parameters: method as in Zhang et al. (2021); conditions: ref Zhang et al. (2021); cited from earlier work
[3] = tested on: antennae of both male and female B. odoriphaga; parameters: method as in Yang et al., 2019; conditions: ref Yang et al., 2019; cited from earlier work
[4] = tested on: B. odoriphaga male adults; parameters: method as in Li H. J. et al., 2007; conditions: extract from the abdomen of B. odoriphaga females; ref Li H. J. et al., 2007; cited from earlier work
[5] = recombinant BodoCSP4, Supplemental Table 2, IC50, read-out: IC50
[6] = recombinant BodoCSP4, Supplemental Table 2, Ki, read-out: Ki
[7] = Ki, recombinant BodoCSP4, Supplemental Table 2, Ki
[8] = recombinant BodoCSP4, competitive with 1-NPN, values in text, read-out: binding affinity (Ki)

In the case of `CCCCOC(=O)CCC(C)=O` [Butyl levulinate], the pIC50 (recombinant BodoCSP4; [5]) was under 4.30 and the pKi (recombinant BodoCSP4; [6]) was under 4.30.

For `C/C1=C\CC/C(C)=C/CC(C)(C)/C=C/C1` [a-Humulene], the pIC50 (recombinant BodoCSP4; [5]) was under 4.30 and the pKi (recombinant BodoCSP4; [6]) was under 4.30.

Work on `c1ccc(Nc2cccc3ccccc23)cc1` [1-NPN, N-phenyl-1-naphthylamine, reference compound] yielded a pKd (recombinant BodoCSP4) of 5.97.

In the case of `C=CCSSCC=C` [Diallyl disulfide], the “effect of silencing of BodoCSP4 on behavioral response of male adults to the ligand” value (from here on “effect of silencing of BodoCSP4”) [1] was “significantly decreased”, the “behavioral response (attraction to ligand vs hexane control)” value ([1]; dsBodoCSP4-treated adult males) was “no olfactory attraction” and the “behavioral response (attraction to ligand vs hexane control)” value ([1]; dsGFP-treated adult males) was “attracted”. The “effect of silencing of BodoCSP1 on behavioral response of male adults” value [2] was “reduced the behavioral response”, the pKi (recombinant BodoCSP4; binding affinity (Ki), recombinant BodoCSP4, competitive with 1-NPN, values in text) was 5.24 and > 5.00 and the “electrophysiological responses from the antennae” value [3] was “strong electrophysiological responses”.

In the case of `C=CC(=O)OCCCC` [Butyl Acrylate], the pIC50 (recombinant BodoCSP4) was under 4.30 and the pKi (recombinant BodoCSP4; [7]) was under 4.30.

Work on `CCCCCCCCCCCCCC` [Tetradecane] yielded a pIC50 (recombinant BodoCSP4; [5]) of under 4.30 and a pKi (recombinant BodoCSP4; [6]) of under 4.30.

`CC/C=C\CCO` [cis-3-Hexen-1-ol] showed a pIC50 (recombinant BodoCSP4) of under 4.30 and a pKi (recombinant BodoCSP4; [7]) of under 4.30.

Work on `C=C(C)[C@H]1CC=C(C)CC1` [(R)-(+)-Limonene] yielded a pIC50 (recombinant BodoCSP4; [5]) of under 4.30 and a pKi (recombinant BodoCSP4; [6]) of under 4.30.

With `CCCCCCCCCCCCCCCC` [Hexadecane] the pIC50 (recombinant BodoCSP4; [5]) was under 4.30 and the pKi (recombinant BodoCSP4; [6]) was under 4.30.

Work on `CCCCCCCCCC=O` [Decanal] yielded a pIC50 (recombinant BodoCSP4; [5]) of under 4.30 and a pKi (recombinant BodoCSP4; [6]) of under 4.30.

`CC(C)=CCCC(C)CCO` (centres unmarked) [Citronellol] showed a pIC50 (recombinant BodoCSP4; [5]) of under 4.30 and a pKi (recombinant BodoCSP4; [6]) of under 4.30.

Compound `CCCCCCCCC=O` [nonanal] has a pIC50 (recombinant BodoCSP4; [5]) of under 4.30 and a pKi (recombinant BodoCSP4; [6]) of under 4.30.

`CCCCC=O` [Valeric aldehyde] showed a pIC50 (recombinant BodoCSP4; [5]) of under 4.30 and a pKi (recombinant BodoCSP4; [6]) of under 4.30.

For `CC12CCC(CC1)C(C)(C)O2` [1,8-Cineole], the pIC50 (recombinant BodoCSP4) was under 4.30 and the pKi (recombinant BodoCSP4; [6]) was under 4.30.

In the case of `CCCCCCC=O` [heptanal], the pIC50 (recombinant BodoCSP4) was under 4.30 and the pKi (recombinant BodoCSP4; [6]) was under 4.30.

With `C=CCSSC` [Methyl allyl disulfide] the “effect of silencing of BodoCSP4” value [1] was “did not decrease”, the “behavioral response (attraction to ligand vs hexane control)” value ([1]; dsBodoCSP4-treated adult males) was “attracted” and the “behavioral response (attraction to ligand vs hexane control)” value ([1]; dsGFP-treated adult males) was “attracted”. For the same compound, the “effect of silencing of BodoCSP1 on behavioral response of male adults” value [2] was “reduced the behavioral response”, the pKi (recombinant BodoCSP4; [8]) was 5.24 and > 5.00 and the “electrophysiological responses from the antennae” value [3] was “strong electrophysiological responses”.

Compound `c1ccc2[nH]ccc2c1` [(H-11)indole] has a pIC50 (recombinant BodoCSP4; [5]) of under 4.30 and a pKi (recombinant BodoCSP4; [6]) of under 4.30.

Work on `CC(=O)/C=C/C1=C(C)CCCC1(C)C` [Beta-Ionone] yielded a pIC50 (recombinant BodoCSP4) of under 4.30 and a pKi (recombinant BodoCSP4; [7]) of under 4.30.

Work on `CCCCCCCCCCCC` [Dodecane] yielded a pIC50 (recombinant BodoCSP4; [5]) of under 4.30 and a pKi (recombinant BodoCSP4; [6]) of under 4.30.

Compound `O=Cc1ccccc1` [benzaldehyde] has a pIC50 (recombinant BodoCSP4) of under 4.30 and a pKi (recombinant BodoCSP4; [7]) of under 4.30.

Work on `C=CC(C)(O)CCC=C(C)C` (centres unmarked) [Linalool] yielded a pIC50 (recombinant BodoCSP4) of under 4.30 and a pKi (recombinant BodoCSP4; [7]) of under 4.30.

`COC(=O)Cc1ccccc1` [Methyl phenylacetate] showed a pIC50 (recombinant BodoCSP4) of under 4.30 and a pKi (recombinant BodoCSP4; [7]) of under 4.30.

`CCCCC(C)=O` [2-Hexanone] gave a pIC50 (recombinant BodoCSP4) of under 4.30 and a pKi (recombinant BodoCSP4; [7]) of under 4.30.

In the case of `CCCCCCCCCCCCCCCCC` [n-Heptadecane], the “effect of silencing of BodoCSP4” value [1] was “significantly decreased”, the “behavioral response (attraction to ligand vs hexane control)” value ([1]; dsBodoCSP4-treated adult males) was “no olfactory attraction” and the “behavioral response (attraction to ligand vs hexane control)” value ([1]; dsGFP-treated adult males) was “attracted”. The “behavioral response in male adults” value [4] was “elicits a behavioral response” and the pKi (recombinant BodoCSP4; [8]) was 5.16 and > 5.00.

`CCCCCCCCC` [Nonane] gave a pIC50 (recombinant BodoCSP4; [5]) of under 4.30 and a pKi (recombinant BodoCSP4; [6]) of under 4.30.

`CCCCCCCC=O` [Octanal] gave a pIC50 (recombinant BodoCSP4; [5]) of under 4.30 and a pKi (recombinant BodoCSP4; [6]) of under 4.30.

In the case of `CC(=O)c1ccccc1` [Acetophenone], the pIC50 (recombinant BodoCSP4) was under 4.30 and the pKi (recombinant BodoCSP4; [6]) was under 4.30.

For `CCCCCCCCCCCC=O` [Dodecyl aldehyde], the pIC50 (recombinant BodoCSP4; [5]) was under 4.30 and the pKi (recombinant BodoCSP4; [6]) was under 4.30.

`C=C1CCC2CC1C2(C)C` (centres unmarked) [ß-pinene] showed a pIC50 (recombinant BodoCSP4; [5]) of under 4.30 and a pKi (recombinant BodoCSP4; [6]) of under 4.30.

With `C=C1CC/C=C(/C)CC[C@@H]2[C@@H]1CC2(C)C` [ß-caryophyllene] the pIC50 (recombinant BodoCSP4; [5]) was under 4.30 and the pKi (recombinant BodoCSP4; [6]) was under 4.30.

In the case of `C=CC(C)=CCC=C(C)C` [Ocimene], the pIC50 (recombinant BodoCSP4; [5]) was under 4.30 and the pKi (recombinant BodoCSP4; [6]) was under 4.30.

With `Cc1ccc(C(C)C)cc1O` [Carvaceol] the pIC50 (recombinant BodoCSP4; [5]) was under 4.30 and the pKi (recombinant BodoCSP4; [6]) was under 4.30.
